Source: ChEMBL document CHEMBL1129577, “Identification of a novel oxazolidinone (U-100480) with potent antimycobacterial activity” (1996)
Values after ≈ are worked out from the molar mass of the structure shown.

What was measured:
Format in all cases: functional
Mycobacterium avium [1] = experiment: Compound was evaluated for in vitro anti-mycobacterial activity against Mycobacterium avium complex by 90%
[2] = test system: Mycobacterium tuberculosis; experiment: Compound was evaluated for in vitro anti-mycobacterial activity against Mycobacterium tuberculosis H37Rv
[3] = test system: Mycobacterium tuberculosis; experiment: In vitro anti-mycobacterial activity against multiple sensitive strains of Mycobacterium tuberculosis at 0.125 ug/mL
[4] = test system: Mycolicibacterium fortuitum; experiment: Compound was evaluated for in vitro anti-mycobacterial activity against Mycobacterium fortuitum
[5] = test system: Mycobacterium tuberculosis; experiment: In vitro anti-mycobacterial activity against multiple sensitive strains of Mycobacterium tuberculosis at 0.50 ug/mL
Mycobacterium xenopi = experiment: Compound was evaluated for in vitro anti-mycobacterial activity against Mycobacterium xenopi
[6] = test system: Mycobacterium tuberculosis; experiment: In vitro anti-mycobacterial activity against multiple sensitive strains of Mycobacterium tuberculosis at 0.03 ug/mL
Mycobacterium avium [7] = experiment: Compound was evaluated for in vitro anti-mycobacterial activity against MAC 101
Mycobacterium simiae = experiment: Compound was evaluated for in vitro anti-mycobacterial activity against Mycobacterium simiae
Mycobacterium avium [8] = experiment: Compound was evaluated for in vitro anti-mycobacterial activity against Mycobacterium avium complex (MAC) ATCC 49601
Mycobacterium malmoense = experiment: Compound was evaluated for in vitro anti-mycobacterial activity against Mycobacterium malmoense
Mycobacterium avium [9] = experiment: Compound was evaluated for in vitro anti-mycobacterial activity against Mycobacterium avium complex by 50%
[10] = test system: Mycobacterium tuberculosis; experiment: In vitro anti-mycobacterial activity against multiple sensitive strains of Mycobacterium tuberculosis at 2 ug/mL
[11] = test system: Mycobacterium tuberculosis; experiment: Compound was evaluated for in vitro anti-mycobacterial activity against Mycobacterium tuberculosis

| Compound | No. of strains [3] | MIC [4] [µg/mL] | No. of strains [5] | MIC (Mycobacterium xenopi) [µg/mL] | MIC (Mycobacterium avium [7]) [µg/mL] | MIC (Mycobacterium simiae) [µg/mL] | MIC (Mycobacterium avium [8]) [µg/mL] | MIC (Mycobacterium malmoense) [µg/mL] | MIC [11] [µg/mL] | further results |
| --- | --- | --- | --- | --- | --- | --- | --- | --- | --- | --- |
| CC(=O)NC[C@H]1CN(c2ccc(N3CCSCC3)c(F)c2)C(=O)O1 [SUTEZOLID] | 2 | 8 (≈ 22.6 µM) | 2 | 2 (≈ 5.66 µM) | 0.5 (≈ 1.41 µM) | 2 (≈ 5.66 µM) | 4 (≈ 11.3 µM) | 2 (≈ 5.66 µM) |  | MIC (Mycobacterium avium [1]): 4 µg/mL (≈ 11.3 µM); MIC [2]: < 0.125 µg/mL; No. of strains [6]: 1; MIC (Mycobacterium avium [9]): 2 µg/mL (≈ 5.66 µM) |
| CC(=O)NC[C@H]1CN(c2ccc(N3CCS(=O)(=O)CC3)c(F)c2)C(=O)O1 | 1 |  | 4 |  |  |  |  |  |  | No. of strains [10]: 1 |
| NNC(=O)c1ccncc1 [ISONIAZID] |  |  |  |  |  |  |  |  | 0.2 (≈ 1.46 µM) |  |
| CC[C@H]1OC(=O)[C@H](C)[C@@H](O[C@H]2C[C@@](C)(OC)[C@@H](O)[C@H](C)O2)[C@H](C)[C@@H](O[C@@H]2O[C@H](C)C[C@H](N(C)C)[C@H]2O)[C@](C)(O)C[C@@H](C)CN(C)[C@H](C)[C@@H](O)[C@]1(C)O [AZITHROMYCIN] |  | > 64 |  | 1 (≈ 1.34 µM) | 4 (≈ 5.34 µM) | 4 (≈ 5.34 µM) | 4 (≈ 5.34 µM) | 16 (≈ 21.4 µM) |  |  |
| CC(=O)NC[C@H]1CN(c2ccc(N3CC[S+]([O-])CC3)c(F)c2)C(=O)O1 |  |  |  |  |  |  |  |  | < 0.125 |  |
